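Growth conditions: 96-well plates. Treatment: test compound, 48 hours, 5 concentrations. Analysis: linear interpolation between bracketing concentrations; unreached endpoints set to highest concentration. The concentration for 50% growth inhibition is given as GI50.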 The source made the active and inactive calls. No stated cut-off is given here; in the data, active = GI50 up to about 1.1 µM and inactive = higher.
How the values were obtained:
Experiment in all cases: NCI tumour cell line growth inhibition, 48 h
786-0 = tested on: 786-0
A498 = tested on: A498
HOP-62 = tested on: HOP-62
HOP-92 = tested on: HOP-92
Hs-578T = tested on: Hs-578T
IGROV-1 = tested on: IGROV-1
K562 = tested on: K562
KM12 = tested on: KM12
MDA-MB-435 = tested on: MDA-MB-435
NCI-H226 = tested on: NCI-H226
NCI-H460 = tested on: NCI-H460
OVCAR-3 = tested on: OVCAR-3
PC-3 = tested on: PC-3
RPMI-8226 = tested on: RPMI-8226
SF-539 = tested on: SF-539
SK-MEL-2 = tested on: SK-MEL-2
SK-OV-3 = tested on: SK-OV-3
SNB-75 = tested on: SNB-75
TK-10 = tested on: TK-10
UO-31 = tested on: UO-31

| Compound | GI50 (786-0) | GI50 (A498) | GI50 (HOP-62) | GI50 (HOP-92) | GI50 (Hs-578T) | GI50 (IGROV-1) | GI50 (K562) | GI50 (KM12) | GI50 (MDA-MB-435) | GI50 (NCI-H226) | GI50 (NCI-H460) | GI50 (OVCAR-3) | GI50 (PC-3) | GI50 (RPMI-8226) | GI50 (SF-539) | GI50 (SK-MEL-2) | GI50 (SK-OV-3) | GI50 (SNB-75) | GI50 (TK-10) | GI50 (UO-31) |
| --- | --- | --- | --- | --- | --- | --- | --- | --- | --- | --- | --- | --- | --- | --- | --- | --- | --- | --- | --- | --- |
| Oc1c(C(O)(c2ccccc2)c2ccc3ccccc3c2O)ccc2ccccc12 | 20 µM (inactive) | 16.1 µM (inactive) | 15 µM (inactive) | 9.1 µM (inactive) | 7.03 µM (inactive) | 7.36 µM (inactive) | 2.88 µM (inactive) | 9.38 µM (inactive) | 14.1 µM (inactive) | 18.8 µM (inactive) | 8.91 µM (inactive) | 6.47 µM (inactive) | 8.26 µM (inactive) | 2.11 µM (inactive) | 19 µM (inactive) | 12.4 µM (inactive) | 17.9 µM (inactive) | 14.7 µM (inactive) | 13 µM (inactive) | 11.2 µM (inactive) |
| O=C(O)C(=Cc1ccc(-c2ccccc2)cc1)C(=O)O | 14.8 µM (inactive) | 19.3 µM (inactive) | 6.75 µM (inactive) | 23.8 µM (inactive) | 24.4 µM (inactive) | 23.3 µM (inactive) | 5.7 µM (inactive) | 15.6 µM (inactive) | 9.16 µM (inactive) | 22 µM (inactive) | 14.9 µM (inactive) | 5.53 µM (inactive) | 9.08 µM (inactive) | 4.26 µM (inactive) | 4.78 µM (inactive) | 6.95 µM (inactive) | 12.6 µM (inactive) | 10.6 µM (inactive) | 13.8 µM (inactive) | 12.4 µM (inactive) |
| COc1cccc(/C=C/c2ccnc3ccccc23)c1OC | > 10 µM (inactive) | > 10 µM (inactive) | > 10 µM (inactive) | 1.08 µM (active) | > 10 µM (inactive) | > 10 µM (inactive) | 4.7 µM (inactive) | > 10 µM (inactive) | 2.86 µM (inactive) | > 10 µM (inactive) | > 10 µM (inactive) | 7.78 µM (inactive) | > 10 µM (inactive) | 2.27 µM (inactive) | > 10 µM (inactive) | > 10 µM (inactive) | > 10 µM (inactive) | > 10 µM (inactive) | > 10 µM (inactive) | > 10 µM (inactive) |
| Oc1ccc(Nc2nc(Cl)c3nc[nH]c3n2)cc1 | > 100 µM (inactive) | > 100 µM (inactive) | > 100 µM (inactive) | 14 µM (inactive) | > 100 µM (inactive) | 67.6 µM (inactive) | 50.8 µM (inactive) | > 100 µM (inactive) | > 100 µM (inactive) | > 100 µM (inactive) | > 100 µM (inactive) | > 100 µM (inactive) | > 100 µM (inactive) | 61.4 µM (inactive) | > 100 µM (inactive) | 27.2 µM (inactive) | > 100 µM (inactive) | > 100 µM (inactive) | > 100 µM (inactive) | > 100 µM (inactive) |
| CCOc1ccc(Nc2nc(N)nc(N)c2N)cc1 | 22.3 µM (inactive) | > 100 µM (inactive) | 24.7 µM (inactive) | 50.9 µM (inactive) | 18.2 µM (inactive) | 11.6 µM (inactive) | 13.6 µM (inactive) | 23.7 µM (inactive) | 25.1 µM (inactive) | 42.2 µM (inactive) | 29.1 µM (inactive) | 30.5 µM (inactive) | 45.3 µM (inactive) | 12.1 µM (inactive) | 21.7 µM (inactive) | 44.9 µM (inactive) | > 100 µM (inactive) | 20.6 µM (inactive) | > 100 µM (inactive) | 11 µM (inactive) |
| CC(C)OC(=O)c1ccc(NCC2=CC(=O)C=CC2=O)cc1 | 13 µM (inactive) | 27.2 µM (inactive) | > 95.5 µM (inactive) | 2.48 µM (inactive) | 18.3 µM (inactive) | 13.5 µM (inactive) | 2.35 µM (inactive) | 16.6 µM (inactive) | 13.6 µM (inactive) | 30 µM (inactive) | 36.3 µM (inactive) | 6.19 µM (inactive) | 13.1 µM (inactive) | 2.54 µM (inactive) | 7.45 µM (inactive) | 17 µM (inactive) | 42 µM (inactive) | 18.5 µM (inactive) | 15.3 µM (inactive) | 9.91 µM (inactive) |
| O=C1CSC(c2ccccc2[N+](=O)[O-])N1c1ccc(-n2c(-c3ccccc3)nc3ccccc3c2=O)cc1 (stereo not given) | 31.4 µM (inactive) | 38.4 µM (inactive) | 21.3 µM (inactive) | 27 µM (inactive) | 20.8 µM (inactive) | 46.1 µM (inactive) | 79.6 µM (inactive) | 48.5 µM (inactive) | > 100 µM (inactive) | 28.4 µM (inactive) | 31.5 µM (inactive) | 79.6 µM (inactive) | 35.7 µM (inactive) | > 100 µM (inactive) | 59 µM (inactive) | 55.8 µM (inactive) | 12.5 µM (inactive) | 19.5 µM (inactive) | 29.6 µM (inactive) | 13.9 µM (inactive) |

From ChEMBL document CHEMBL1201862, “PubChem BioAssay data set” (2004)
